Reference: paper PMC5834492, “Antimycobacterial drug discovery using Mycobacteria-infected amoebae identifies anti-infectives and new molecular targets” (Scientific Reports, 2018)

System: M. marinum luxCDABE
Assay type: cell-based, Mycobacterium marinum
Conditions: not given

Row | Compound | Antibiotic assays: M. marinum luxCDABE
1 | FC(F)(F)c1cc(SCc2ccccc2)nc(-c2ccccn2)n1 [GSK847913A] | 0.00
2 | CCc1nc2ccccc2n1CC(O)COc1cc(C)ccc1Cl (centres unmarked) [GSK889423A] | 0.00
3 | O=C(CCSc1ccc(Cl)cc1)Nc1nc(-c2ccccn2)cs1 [GSK920703A] | 0.13
4 | O=C(CCC1CCCCC1)Nc1cccc(-c2nnc(-c3ccco3)o2)c1 [GSK937213A] | 0.00
5 | Cc1ccc(C2CC(C(F)(F)F)n3ncc(C(=O)NCc4ccc5c(c4)OCO5)c3N2)cc1 (centres unmarked) [GSK937733A] | 1.00
6 | Cc1ccc(CNC(=O)c2cnn3c2NC(c2ccc(C)cc2)CC3C(F)F)cc1 (centres unmarked) [GSK1180781A] | 1.00
7 | c1ccc(CCNc2cc(-c3ccccc3)nc3nncn23)cc1 [GSK1402290A] | 0.14
8 | Fc1ccccc1-c1noc(N2CCN(Cc3ccc4c(c3)OCO4)CC2)n1 [GSK1434490A] | 0.68
9 | CCc1ccc(C2CC(C(F)(F)F)n3ncc(C(=O)NCc4cccs4)c3N2)cc1 (centres unmarked) [GSK1589671A] | 0.16
10 | CCc1ccc(C2CC(C(F)(F)F)n3ncc(C(=O)NCc4ccc(OC)cc4)c3N2)cc1 (centres unmarked) [GSK1589673A] | 1.00

System: BV2 cells
Conditions: not given

Row | Compound | Growth inhibition / Cytotoxicity assays: BV2 cells
11 | FC(F)(F)c1cc(SCc2ccccc2)nc(-c2ccccn2)n1 [GSK847913A] | False
12 | CCc1nc2ccccc2n1CC(O)COc1cc(C)ccc1Cl (centres unmarked) [GSK889423A] | False
13 | O=C(CCSc1ccc(Cl)cc1)Nc1nc(-c2ccccn2)cs1 [GSK920703A] | False
14 | O=C(CCC1CCCCC1)Nc1cccc(-c2nnc(-c3ccco3)o2)c1 [GSK937213A] | False
15 | Cc1ccc(C2CC(C(F)(F)F)n3ncc(C(=O)NCc4ccc5c(c4)OCO5)c3N2)cc1 (centres unmarked) [GSK937733A] | False
16 | Cc1ccc(CNC(=O)c2cnn3c2NC(c2ccc(C)cc2)CC3C(F)F)cc1 (centres unmarked) [GSK1180781A] | False
17 | c1ccc(CCNc2cc(-c3ccccc3)nc3nncn23)cc1 [GSK1402290A] | False
18 | Fc1ccccc1-c1noc(N2CCN(Cc3ccc4c(c3)OCO4)CC2)n1 [GSK1434490A] | False
19 | CCc1ccc(C2CC(C(F)(F)F)n3ncc(C(=O)NCc4cccs4)c3N2)cc1 (centres unmarked) [GSK1589671A] | False
20 | CCc1ccc(C2CC(C(F)(F)F)n3ncc(C(=O)NCc4ccc(OC)cc4)c3N2)cc1 (centres unmarked) [GSK1589673A] | False

System: Mtb H37Rv
Parameters: method as in Sorrentino et al, 2015
Conditions: ref Sorrentino et al, 2015; cited from earlier work

Row | Compound | Extracellular MIC90
21 | FC(F)(F)c1cc(SCc2ccccc2)nc(-c2ccccn2)n1 [GSK847913A] | 3.3 µM
22 | CCc1nc2ccccc2n1CC(O)COc1cc(C)ccc1Cl (centres unmarked) [GSK889423A] | 8.8 µM
23 | O=C(CCSc1ccc(Cl)cc1)Nc1nc(-c2ccccn2)cs1 [GSK920703A] | 8.4 µM
24 | O=C(CCC1CCCCC1)Nc1cccc(-c2nnc(-c3ccco3)o2)c1 [GSK937213A] | 6.1 µM
25 | Cc1ccc(C2CC(C(F)(F)F)n3ncc(C(=O)NCc4ccc5c(c4)OCO5)c3N2)cc1 (centres unmarked) [GSK937733A] | 5.4 µM
26 | Cc1ccc(CNC(=O)c2cnn3c2NC(c2ccc(C)cc2)CC3C(F)F)cc1 (centres unmarked) [GSK1180781A] | 1.2 µM
27 | c1ccc(CCNc2cc(-c3ccccc3)nc3nncn23)cc1 [GSK1402290A] | 5.5 µM
28 | Fc1ccccc1-c1noc(N2CCN(Cc3ccc4c(c3)OCO4)CC2)n1 [GSK1434490A] | 5.2 µM
29 | CCc1ccc(C2CC(C(F)(F)F)n3ncc(C(=O)NCc4cccs4)c3N2)cc1 (centres unmarked) [GSK1589671A] | 4.4 µM
30 | CCc1ccc(C2CC(C(F)(F)F)n3ncc(C(=O)NCc4ccc(OC)cc4)c3N2)cc1 (centres unmarked) [GSK1589673A] | 4.9 µM

System: D. discoideum GFP-ABD
Conditions: not given

Row | Compound | Growth inhibition / Cytotoxicity assays: D. discoideum GFP-ABD
31 | FC(F)(F)c1cc(SCc2ccccc2)nc(-c2ccccn2)n1 [GSK847913A] | 0.94
32 | CCc1nc2ccccc2n1CC(O)COc1cc(C)ccc1Cl (centres unmarked) [GSK889423A] | 0.94
33 | O=C(CCSc1ccc(Cl)cc1)Nc1nc(-c2ccccn2)cs1 [GSK920703A] | 0.48
34 | O=C(CCC1CCCCC1)Nc1cccc(-c2nnc(-c3ccco3)o2)c1 [GSK937213A] | 1.19
35 | Cc1ccc(C2CC(C(F)(F)F)n3ncc(C(=O)NCc4ccc5c(c4)OCO5)c3N2)cc1 (centres unmarked) [GSK937733A] | 0.94
36 | Cc1ccc(CNC(=O)c2cnn3c2NC(c2ccc(C)cc2)CC3C(F)F)cc1 (centres unmarked) [GSK1180781A] | 1.05
37 | c1ccc(CCNc2cc(-c3ccccc3)nc3nncn23)cc1 [GSK1402290A] | 0.84
38 | Fc1ccccc1-c1noc(N2CCN(Cc3ccc4c(c3)OCO4)CC2)n1 [GSK1434490A] | 0.93
39 | CCc1ccc(C2CC(C(F)(F)F)n3ncc(C(=O)NCc4cccs4)c3N2)cc1 (centres unmarked) [GSK1589671A] | 0.99
40 | CCc1ccc(C2CC(C(F)(F)F)n3ncc(C(=O)NCc4ccc(OC)cc4)c3N2)cc1 (centres unmarked) [GSK1589673A] | 1.16

System: M. marinum in BV2 microglial cells
Assay type: cell-based, Mycobacterium marinum
Conditions: not given

Row | Compound | Intracellular infection assays: BV2 / M. marinum
41 | FC(F)(F)c1cc(SCc2ccccc2)nc(-c2ccccn2)n1 [GSK847913A] | 1.39
42 | CCc1nc2ccccc2n1CC(O)COc1cc(C)ccc1Cl (centres unmarked) [GSK889423A] | 1.41
43 | O=C(CCSc1ccc(Cl)cc1)Nc1nc(-c2ccccn2)cs1 [GSK920703A] | 1.24
44 | O=C(CCC1CCCCC1)Nc1cccc(-c2nnc(-c3ccco3)o2)c1 [GSK937213A] | 1.14
45 | Cc1ccc(C2CC(C(F)(F)F)n3ncc(C(=O)NCc4ccc5c(c4)OCO5)c3N2)cc1 (centres unmarked) [GSK937733A] | 1.64
46 | Cc1ccc(CNC(=O)c2cnn3c2NC(c2ccc(C)cc2)CC3C(F)F)cc1 (centres unmarked) [GSK1180781A] | 1.23
47 | c1ccc(CCNc2cc(-c3ccccc3)nc3nncn23)cc1 [GSK1402290A] | 1.11
48 | Fc1ccccc1-c1noc(N2CCN(Cc3ccc4c(c3)OCO4)CC2)n1 [GSK1434490A] | 1.16
49 | CCc1ccc(C2CC(C(F)(F)F)n3ncc(C(=O)NCc4cccs4)c3N2)cc1 (centres unmarked) [GSK1589671A] | 1.74
50 | CCc1ccc(C2CC(C(F)(F)F)n3ncc(C(=O)NCc4ccc(OC)cc4)c3N2)cc1 (centres unmarked) [GSK1589673A] | 1.29

System: Mtb H37Rv in THP-1
Parameters: method as in Sorrentino et al, 2015
Conditions: THP1 / Mtb H37Rv infection assay; ref Sorrentino et al, 2015; cited from earlier work

Row | Compound | Intracelullar MIC90 in THP-1
51 | FC(F)(F)c1cc(SCc2ccccc2)nc(-c2ccccn2)n1 [GSK847913A] | 1.85 µM
52 | CCc1nc2ccccc2n1CC(O)COc1cc(C)ccc1Cl (centres unmarked) [GSK889423A] | 5.55 µM
53 | O=C(CCSc1ccc(Cl)cc1)Nc1nc(-c2ccccn2)cs1 [GSK920703A] | 5.55 µM
54 | O=C(CCC1CCCCC1)Nc1cccc(-c2nnc(-c3ccco3)o2)c1 [GSK937213A] | 0.61 µM
55 | Cc1ccc(C2CC(C(F)(F)F)n3ncc(C(=O)NCc4ccc5c(c4)OCO5)c3N2)cc1 (centres unmarked) [GSK937733A] | 0.61 µM
56 | Cc1ccc(CNC(=O)c2cnn3c2NC(c2ccc(C)cc2)CC3C(F)F)cc1 (centres unmarked) [GSK1180781A] | 0.21 µM
57 | c1ccc(CCNc2cc(-c3ccccc3)nc3nncn23)cc1 [GSK1402290A] | 5.55 µM
58 | Fc1ccccc1-c1noc(N2CCN(Cc3ccc4c(c3)OCO4)CC2)n1 [GSK1434490A] | 5.55 µM
59 | CCc1ccc(C2CC(C(F)(F)F)n3ncc(C(=O)NCc4cccs4)c3N2)cc1 (centres unmarked) [GSK1589671A] | 0.21 µM
60 | CCc1ccc(C2CC(C(F)(F)F)n3ncc(C(=O)NCc4ccc(OC)cc4)c3N2)cc1 (centres unmarked) [GSK1589673A] | 0.61 µM

Same assay, conditions: ratio; ref Sorrentino et al, 2015; cited from earlier work

Row | Compound | Extracellular MIC90/ Inracellular MIC90
61 | FC(F)(F)c1cc(SCc2ccccc2)nc(-c2ccccn2)n1 [GSK847913A] | 1.78
62 | CCc1nc2ccccc2n1CC(O)COc1cc(C)ccc1Cl (centres unmarked) [GSK889423A] | 1.58
63 | O=C(CCSc1ccc(Cl)cc1)Nc1nc(-c2ccccn2)cs1 [GSK920703A] | 1.51
64 | O=C(CCC1CCCCC1)Nc1cccc(-c2nnc(-c3ccco3)o2)c1 [GSK937213A] | 10
65 | Cc1ccc(C2CC(C(F)(F)F)n3ncc(C(=O)NCc4ccc5c(c4)OCO5)c3N2)cc1 (centres unmarked) [GSK937733A] | 8.85
66 | Cc1ccc(CNC(=O)c2cnn3c2NC(c2ccc(C)cc2)CC3C(F)F)cc1 (centres unmarked) [GSK1180781A] | 5.71
67 | c1ccc(CCNc2cc(-c3ccccc3)nc3nncn23)cc1 [GSK1402290A] | 0.99
68 | Fc1ccccc1-c1noc(N2CCN(Cc3ccc4c(c3)OCO4)CC2)n1 [GSK1434490A] | 0.94
69 | CCc1ccc(C2CC(C(F)(F)F)n3ncc(C(=O)NCc4cccs4)c3N2)cc1 (centres unmarked) [GSK1589671A] | 20.95
70 | CCc1ccc(C2CC(C(F)(F)F)n3ncc(C(=O)NCc4ccc(OC)cc4)c3N2)cc1 (centres unmarked) [GSK1589673A] | 8.03

System: M. marinum in A. castellanii
Assay type: cell-based, Mycobacterium marinum
Conditions: not given

Row | Compound | Intracellular infection assays: A. castellanii / M. marinum
71 | FC(F)(F)c1cc(SCc2ccccc2)nc(-c2ccccn2)n1 [GSK847913A] | 0.90
72 | CCc1nc2ccccc2n1CC(O)COc1cc(C)ccc1Cl (centres unmarked) [GSK889423A] | 1.18
73 | O=C(CCSc1ccc(Cl)cc1)Nc1nc(-c2ccccn2)cs1 [GSK920703A] | 1.34
74 | O=C(CCC1CCCCC1)Nc1cccc(-c2nnc(-c3ccco3)o2)c1 [GSK937213A] | 1.06
75 | Cc1ccc(C2CC(C(F)(F)F)n3ncc(C(=O)NCc4ccc5c(c4)OCO5)c3N2)cc1 (centres unmarked) [GSK937733A] | 1.38
76 | Cc1ccc(CNC(=O)c2cnn3c2NC(c2ccc(C)cc2)CC3C(F)F)cc1 (centres unmarked) [GSK1180781A] | 1.14
77 | c1ccc(CCNc2cc(-c3ccccc3)nc3nncn23)cc1 [GSK1402290A] | 1.08
78 | Fc1ccccc1-c1noc(N2CCN(Cc3ccc4c(c3)OCO4)CC2)n1 [GSK1434490A] | 1.24
79 | CCc1ccc(C2CC(C(F)(F)F)n3ncc(C(=O)NCc4cccs4)c3N2)cc1 (centres unmarked) [GSK1589671A] | 1.63
80 | CCc1ccc(C2CC(C(F)(F)F)n3ncc(C(=O)NCc4ccc(OC)cc4)c3N2)cc1 (centres unmarked) [GSK1589673A] | 1.34
